This is an account of results in patent publication US5712282A, “Method for therapeutically treating tardive dyskinesia and uses thereof” (Iyo; Masaomi, priority 1994, dated 1998).

The nature of one series: acute toxicity in rats. Conditions: rat, in vivo.
In series [1] the test system is SD-strain rats. Kind of series: Test Example 2: oral dyskinesia induced by haloperidol decanoate (25 mg/kg i.m. every 4 weeks, 24 weeks) in rats. It counts as in vivo, SD-strain rats (male). The settings on record: for Number of the tongue protrusions / Number of the chewings: 15 min observation from 15 min after dosing, Mean±SE; for Number of the tongue protrusions: control 17.2 ± 5.5; for Number of the chewings: control 213.3 ± 50.5; for suppression of oral dyskinesia: haloperidol decanoate-induced, rats, i.p. Here is the method:
Haloperidol decanoate was intramuscularly injected in the femoral region of each rat of SD-strain rats (male, 6 rats per group) at a dose of 25 mg/kg once for every 4 weeks during the total period of 24 weeks.
To the control group of rats was intraperitoneally administered only the physiological saline containing 10% Cremophor.
The numbers of the vacuous chewing movements and the abnormal tongue-protruding movements appearing during the 15 min. period of the observation were counted as indices of oral dyskinesia in the rats.
Values of Mean±Standard error of the numbers of the abnormal movements as observed were calculated, and the results obtained are shown in Table 3 below.

The test system of series [2] is SD-strain rats. The series is described as follows: Test Example 1: tardive dyskinesia induced by haloperidol (1.5 mg/kg i.p. daily, 3 weeks) in rats. Type of series: in vivo, SD-strain rats (male). Conditions: for Number of the tongue protrusions / Number of the chewings: 15 min observation from 3 min after dosing, Mean±SE; for Number of the tongue protrusions: control 7.7 ± 2.1; for Number of the chewings: control 111.2 ± 27.8. The protocol:
After lapse of 96 hours from the completion of the last administration of haloperidol, the number of the vacuous chewing movements of the mouth and the number of abnormal tongue-protruding movements of the rats were counted as the parameters indicative of tardive dyskinesia.

The next series relates to cAMP in the brain. The settings on record: rats; animal tests, J. Med. Chem. 34(1), 291-293 (1991); cited from earlier work.
Another series addresses phosphodiesterase IV. Conditions: Type of PDE inhibited: IV; in vitro; cited from earlier work.
The test system of series [3] is SD-strain rats. The series is described as follows: Test Example 3: oral dyskinesia induced by haloperidol (1.5 mg/kg i.p. daily, 5 weeks) in rats. Type of series: in vivo, SD-strain rats (female). Here is the method:
Haloperidol in the form of a suspension of haloperidol in 0.5% aqueous carboxymethylcellulose was intraperitoneally administrated at a dose of 1.5 mg/kg to each rat of SD-strain rats (female, 7 to 8 rats per group) once a day for consecutive five weeks.
Ro 20-1724 was formulated into the form of a suspension in which said compound was partially dissolved and partially dispersed in a physiological saline containing 10% Cremophor. On the next day of the final administration of haloperidol, Ro 20-1724 as the suspension was intraperitoneally administered at a dose of 3 mg/kg, […] or 30 mg/kg in the rats under test. To the control group of rats was administered only the physiological saline containing 10% Cremophor.
The numbers of the vacuous chewing movements and the abnormal tongue-protruding movements appearing during the 15 min. period of the observation were counted as the indices of oral dyskinesia in the rats. The net observation time was calculated by substracting from the total observation time of 15 minutes the amount of time which the rat spent in exploration or grooming. The indices of the oral dyskinesia were expressed as the number of occurrence of the abnormal movements observed in one minute of the net observation time.

For another series, the target named is phosphodiesterase I ~ V. The settings on record: Type of PDE inhibited: I ~ V; in vitro; cited from earlier work.
The target of the next series is phosphodiesterase I. Conditions: Type of PDE inhibited: I; in vitro; cited from earlier work.
Another series relates to patients. The settings on record: long-term administration; cited from earlier work.

On to `COc1ccc(C2CNC(=O)C2)cc1OC1CCCC1` (racemic) [Rolipram, (±)-4-[3-(cyclopentyloxy)-4-methoxyphenyl]-2-pyrrolidinone], for which the LD50 – broadly, the dose at which mortality reaches 50% – in “acute toxicity in rats” (ip, intraperitoneal) was about 500 mg/kg; in the series “acute toxicity in rats” (oral), about 1200 mg/kg. Also, the “Number of the tongue protrusions” value was found to be 6.0 ± 2.2 in the series with SD-strain rats [1] (0.1 mg/kg i.p.); 1.7 ± 1.1 in the series on SD-strain rats [1] (0.5 mg/kg i.p.); 1.3 ± 1.1 in the series with SD-strain rats [1] (1.0 mg/kg i.p.); 2.7 ± 1.7 in the series on SD-strain rats [2] (0.5 mg/kg i.p.); 1.5 ± 1.5 in the series with SD-strain rats [2] (1.0 mg/kg i.p.). Besides, the “Number of the chewings” value in the series with SD-strain rats [1] (0.1 mg/kg i.p.) came out at 138.0 ± 38.1; with SD-strain rats [1] (0.5 mg/kg i.p.), 33.8 ± 13.8; in the series with SD-strain rats [1] (1.0 mg/kg i.p.), 42.0 ± 9.5; in the series with SD-strain rats [2] (0.5 mg/kg i.p.), 32.2 ± 14.5; in the series with SD-strain rats [2] (1.0 mg/kg i.p.) it was 8.8 ± 4.0. In addition, the “suppression of oral dyskinesia” value in the series with SD-strain rats [1] was “suppress in a dose-dependent manner the oral dyskinesia”. Besides, the “therapeutic effect on symptoms of tardive dyskinesia” value in the series with SD-strain rats [2] (haloperidol-induced rat model, i.p. 0.5 and 1.0 mg/kg) is reported as “suppresses in a dose-dependent manner the symptoms of tardive dyskinesia”. The “concentration of cAMP in the brain” value with cAMP in the brain is given as “can increase the concentration of cAMP in the brain of rats”.
For `CCCCn1c(=O)c2c(ncn2CC(C)=O)n(CCCC)c1=O` [Denbufylline, 7-(2-oxopropyl)-1,3-di-n-butylxanthine], the IC50 (usually the point on the concentration scale where inhibition reaches its midpoint) on phosphodiesterase IV is 0.3 µM.
`CC(C)Cn1c(=O)n(C)c(=O)c2[nH]cnc21` [IBMX, 3-isobutyl-1-methylxanthine]: in the series with SD-strain rats [1] (2.0 mg/kg i.p.), the “Number of the tongue protrusions” value stood at 4.8 ± 1.8 and the “Number of the chewings” value is reported as 135.3 ± 45.0. Also, the “suppression of oral dyskinesia” value in the series on SD-strain rats [1] is reported as “had a tendency to suppress the above-mentioned oral dyskinesia”.
Take `CCCCOc1cc(CC2CNC(=O)N2)ccc1OC` (centres unmarked) [Ro 20-1724]: at phosphodiesterase IV, the IC50 is 2 µM. The “Number of the tongue protrusions” value in the series with SD-strain rats [3] (3 mg/kg i.p., number in one minute of net observation time, Mean±SE, n = 8, control 1.90 ± 0.87) was found to be 0.46 ± 0.17. The “Number of the chewings” value in the series on SD-strain rats [3] (3 mg/kg i.p., number in one minute of net observation time, Mean±SE, n = 8, control 16.2 ± 2.4) worked out at 11.7 ± 2.1. For the same compound, the “suppression of oral dyskinesia” value in the series with SD-strain rats [3] (haloperidol-induced, rats, i.p. 3, 10, 30 mg/kg) was “suppressed in a dose dependent manner the oral dyskinesia”.
`Cn1c(=O)c2[nH]cnc2n(C)c1=O` [Theophylline, 3,7-dihydro-1,3-dimethyl-1H-purine-2,6-dione]: the IC50 at phosphodiesterase I ~ V was about 200 µM.
In the case of `CCOC(=O)C1=C[C@]2(CC)CCCN3CCc4c(n1c1ccccc41)[C@@H]32` [Vinpocetine, eburnamenine 14-carboxylic acid ethyl ester], the IC50 at phosphodiesterase I was 20 µM.
As for `O=C(CCCN1CCC(O)(c2ccc(Cl)cc2)CC1)c1ccc(F)cc1` [haloperidol], in the series with patients, the adverse reaction result is listed as “induction of tardive dyskinesia”.
